Experimental data as given in patent EP1406920B1, “NOVEL CHROMOGENIC SUBSTANCES AND USE THEREOF FOR THE DETERMINATION OF CARBOXYPEPTIDASE ACTIVITIES” (Diagnostica Stago, priority 2001, dated 2003).

Key:
Type in all cases: biochemical
TAFI purifié [1] = molecular target: T1, TAFI purifié (Homo sapiens, UniProt Q96IY4); assay: Specificity test on purified TAFI solution: MxAFR versus MxPAFFK; settings: for DO de départ / DO finale / Delta DO: TAFI purifié 18 µg/ml, activated, MxAFR 27 mM without CPA, MxPAFFK with CPA added, 382 nm; for hydrolyse par le TAFI activé: conclusion in words, purified TAFI 18 µg/ml
T1 sequence (Q96IY4 115-423): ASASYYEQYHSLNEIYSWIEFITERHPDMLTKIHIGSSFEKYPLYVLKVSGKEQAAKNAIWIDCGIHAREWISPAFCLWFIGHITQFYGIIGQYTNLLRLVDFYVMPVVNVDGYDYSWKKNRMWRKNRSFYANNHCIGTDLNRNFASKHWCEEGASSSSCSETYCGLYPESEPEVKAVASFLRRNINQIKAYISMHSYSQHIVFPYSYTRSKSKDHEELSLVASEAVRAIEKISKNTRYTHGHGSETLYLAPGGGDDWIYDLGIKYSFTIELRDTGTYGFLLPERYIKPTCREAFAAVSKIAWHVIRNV
Source text: 2. La méthode de l'invention est ensuite appliquée sur une solution de TAFI purifiée, soit avec un substrat de formule (I) (MxPAFFK), soit avec le MxAFR pour vérifier que le TAFIa hydrolyse néanmoins un composé de formule (I). L'activation de la coagulation est déclenchée par le complexe thrombine-thrombomoduline-CaCl2 (voir protocole exemple 2). La diminution de coloration de chacun des deux échantillons est suivie au spectrophotomètre. • a) échantillons de départ : solution de TAFI purifié à18 µg/ml (dilué dans tampon hépès). • b) activation de la coagulation. • c) addition de MxAFR 27 mM ou MxPAFFK (témoin) concentration du MxAFFK. • d) addition de CPA dans l'échantillon contenant le MxPAFFK. • e) lecture DO à 382 nm.

TAFI purifié [2] = molecular target: T1, TAFI purifié; assay: Colorimetric TAFI activity assay on purified TAFI with different substrates (thrombin/thrombomodulin activation, carboxypeptidase A revelation); settings: substrate 5 mM; 6,5 µg/ml TAFI purifié in hépès buffer; read at 320-350 nm
[3] = test system: carboxypeptidase B pancréatique porcine; assay: Decoloration of single-amino-acid substrate AAFR by pancreatic carboxypeptidase B; settings: CPB porcine 5,2 mol/l in hépès buffer; AAFR 5 mM (0,25 mM); 382 nm
Source text: (§1) L'exemple ci-après vise à démontrer la nécessité d'utiliser la méthode et les composés de formule (I) de l'invention pour doser spécifiquement l'activité des CPN ou U, en particulier le TAFI, par rapport à d'autres carboxypeptidases basiques. 1. Le dosage est dans ce cas réalisé avec un substrat de la famille de composés décrites par Mock dans (14). Ce substrat est constitué d'un seul acide aminé porteur du radical chromophore anizylazoformyl (portion CH3OC6H4-N = N-CO-). L'acide aminé choisi est l'arginine, un acide aminé basique normalement hydrolysé par les carboxypeptidases B (1). Ce substrat est dénommé ci-après AAFR (AnizylAzoFormyArginine) ou MxAFR (4-MethoxyphenylAzoformylarginine). Ce substrat (0,25 mM) est mis en présence soit d'un échantillon de TAFI plasmatique, soit d'une solution de carboxypeptidase B pancréatique porcine (Sigma - Réf. C9584) à 5,2 mol/l. La diminution de coloration de chacun des deux échantillons est suivie au spectrophotomètre. Chacun des échantillons est traité selon le protocole suivant : • a) échantillon de départ : • TAFI plasmatique (présent dans un pool normal de plasmas - dilué au 1/20) ou • Carboxypeptidase B pancréatique porcine 5,2 mol/l (dans tampon hépès) • b) activation avec complexe thrombine-thrombomoduline-CaCl2 (voir exemple 2) pour l'échantillon de TAFI plasmatique. • c) addition de AAFR à 5 mM. • d) lecture DO à 382 nm.

TAFI plasmatique = molecular target: T2, TAFI plasmatique (Homo sapiens, UniProt Q96IY4); assay: Decoloration of single-amino-acid substrate AAFR by activated plasma TAFI
T2 construct: from tissue; host or cells: normal plasma pool, diluted 1/20
T2 sequence (Q96IY4 115-423): T1 sequence (Q96IY4 115-423)
Source text: as §1

TAFI purifié [4] = molecular target: T1, TAFI purifié; assay: Calibration range, thrombin/thrombomodulin method, TAFI-deficient plasma spiked with purified TAFI; settings: substrate 5 mM
Experimental: L'échantillon de plasma testé est divisé en deux aliquotes, l'un étant additionné de PIC (Calbiochem - Réf. 217359), l'autre de tampon hépès. Les deux aliquotes sont ensuite traités de manière identique selon le principe suivant :
• 150 µl de plasma dilué au 1/20 en tampon hépès (ou TAFI purifié à 13 µg/ml en tampon hépès. • 10 µl PIC ou H2O • 5 minutes à température ambiante • 150 µl tampon activateur de la coagulation • 10 minutes à température ambiante • 100 µl PPACK + 100 µl MxPAFFR (substrat) (5 mM)
• 30 minutes à température ambiante • 100 µl HCl 1M + 100 µl NaOH 1M
• Dilution au 1/3 en tampon hépès • Lecture de la DO à 382 nm • 25 µl Carboxypeptidase A • Lecture de la DO à 382 nm sur 1 minute
La figure 3 ci-après représente une courbe d'étalonnage établie à partir d'un plasma déficient en TAFI surchargé avec du TAFI purifié pour obtenir une gamme de concentration en TAFI allant de 0 à 26 µg/ml. Le composé de formule I utilisé est le MxPAAFR à une concentration de 5 mM. Les Δ DO mesurés selon la méthode de l'invention sont reportés dans le tableau III suivant : TABLEAU III : […]

[5] = TAFIa du plasma (normal plasma pool diluted 1/20, thrombine-thrombomoduline-CaCl2 activation), AAFR 5 mM (0,25 mM), 382 nm

SMILES | DO de départ (TAFI purifié [1]) | DO finale (TAFI purifié [1]) | Delta DO (TAFI purifié [1]) | hydrolyse par le TAFI activé (TAFI purifié [1]) | DO de départ (TAFI purifié [2]) | DO finale (TAFI purifié [2]) | Delta DO (TAFI purifié [2]) | also measured
COc1ccc(N=NC(=O)N[C@@H](CCCNC(=N)N)C(=O)O)cc1 [AAFR, 4-MethoxyphenylAzoformylarginine] | 1.356 | 1.300 | 0.056 | n'hydrolyse pas | – | – | – | Delta DO [3]: 0.608; DO de départ (TAFI plasmatique; [5]): 1.730; DO finale (TAFI plasmatique; [5]): 1.681; Delta DO (TAFI plasmatique; [5]): 0.049; hydrolyse par le TAFI activé (TAFI plasmatique; conclusion in words, plasma TAFIa): n'hydrolyse pas
Cc1ccc(N=NC(=O)N[C@@H](Cc2ccccc2)C(=O)N[C@@H](CCCNC(=N)N)C(=O)O)c(C)c1 [2,4 DMPAFFR, 2,4-dimethylphenylazoformylphenylalanylarginine] | – | – | – | – | 1.004 | 0.087 | 0.917 | –
COc1ccc(N=NC(=O)N[C@@H](Cc2ccccc2)C(=O)N[C@@H](CCCNC(=N)N)C(=O)O)cc1 [MxPAAFR, 4-methoxyphenylazoformylphenylalanylarginine] | – | – | – | – | – | – | – | Δ DO mesuré (TAFI purifié [4]; concentration en TAFIa 0 µg/ml): 0.168; Δ DO mesuré (TAFI purifié [4]; concentration en TAFIa 1.63 µg/ml): 0.217; Δ DO mesuré (TAFI purifié [4]; concentration en TAFIa 3.25 µg/ml): 0.273; Δ DO mesuré (TAFI purifié [4]; concentration en TAFIa 6.5 µg/ml): 0.399; Δ DO mesuré (TAFI purifié [4]; concentration en TAFIa 13 µg/ml): 0.624; Δ DO mesuré (TAFI purifié [4]; concentration en TAFIa 26 µg/ml): 0.995

The next lines start with results.

DO de départ (TAFI purifié [1]) | DO finale (TAFI purifié [1]) | Delta DO (TAFI purifié [1]) | hydrolyse par le TAFI activé (TAFI purifié [1]) | DO de départ (TAFI purifié [2]) | DO finale (TAFI purifié [2]) | Delta DO (TAFI purifié [2]) | SMILES | also measured
1.397 | 0.849 | 0.548 | actif | 0.973 | 0.131 | 0.842 | COc1ccc(N=NC(=O)N[C@@H](Cc2ccccc2)C(=O)N[C@@H](CCCCN)C(=O)O)cc1 [MxPAFFK, 4-methoxyphenylazoformylphenylalanyllysine] | –
– | – | – | – | 0.318 | 0.089 | 0.229 | Cc1cccc(N=NC(=O)N[C@@H](Cc2ccccc2)C(=O)N[C@@H](CCCNC(=N)N)C(=O)O)c1C [2,3 DMPAFFR, 2,3-dimethylphenylazoformylphenylalanylarginine] | –
– | – | – | – | 0.973 | 0.131 | 0.842 | Cc1ccc(C)c(N=NC(=O)N[C@@H](Cc2ccccc2)C(=O)N[C@@H](CCCNC(=N)N)C(=O)O)c1 [2,5 DMPAFFR, 2,5-dimethylphenylazoformylphenylalanylarginine] | –
